Results taken from PMC7821884, “BRAF inhibition protects against hearing loss in mice” (Science Advances, 2020).

Tested on: HEI-OC1 cells
Assay: Cell Titer-Glo cell viability assay, compound alone
Format: cell-based
Settings: all concentrations tested
Text: All compounds were further characterized via Cell Titer-Glo cell viability assay to determine toxicity of the compound alone in HEI-OC1 cells (table S1 and dataset in the Supplementary Materials). […] The other BRAF inhibitors had similar IC50 in the micromolar range and were nontoxic to cells (table S1).
In these screens, caspase-3 cleavage was chosen as the end point indicating cisplatin-induced apoptosis, because it allowed the inhibition of cell death to be monitored at the level of any molecular target upstream of caspase-3 cleavage in the HEI-OC1 cell line. Cells were plated at a previously optimized concentration of 1600 cells per well in medium without γ-interferon to limit proliferation and tested against 50 μM cisplatin based on a previous dose–response curve. Tested compounds were dissolved in DMSO before addition to medium with a final DMSO concentration of <0.5%. The screens are described in detail in our previous publications ([12], [13]). […] Pifithrin-α was added to each plate as a screening quality control. The linearity of the Caspase-Glo 3/7 (Promega) assay, which enables the measurement of light emitted as a result of caspase-3/7 cleavage and is suitable for HTS, was validated, and it was verified that 0.5% DMSO had no effect on the cell death kinetics. Compounds were screened in triplicate at final concentrations ranging from 1 nM to 85 μM and incubated for 22 hours. […]

## CC(C)(C)c1nc(-c2cccc(NS(=O)(=O)c3c(F)cccc3F)c2F)c(-c2ccnc(N)n2)s1 [dabrafenib]
  toxicity of the compound alone, cell viability assay: nontoxic
